# Experiments:
# DgSTING = assay: EMSA titration with […]-labeled ligand; format: binding, Diaphanoeca grandis
# SdSTING = assay: EMSA titration with […]-labeled ligand; format: binding, Stephanoeca diplocostata
compound,measurement,setting,value
Nc1nc2c(ncn2[C@@H]2O[C@@H]3COP(=O)(O)O[C@H]4[C@@H](O)[C@H](n5cnc6c(=O)[nH]c(N)nc65)O[C@@H]4COP(=O)(O)O[C@H]3[C@H]2O)c(=O)[nH]1 [3′3′-c-di-GMP],Kd,DgSTING,590 nM
same,Kd,SdSTING,1750 nM

# — doi:10.1101/2025.09.04.674280 (bioRxiv, 2025)
